Tests used:
[1] = system: human umbilical vein endothelial cells (HUVEC); assay: MTT assay, cytotoxicity in HUVEC; format: cell-based; conditions: for Cell viability: HUVEC, con = 100, in %
Protocol: Firstly, the cytotoxicity is measured by the MTT assay. Phytosphingosine (PS), phytosphingosine-HCl (PS-HCl), C6-phytosphingosine (C6-PS), CLA-phytosphingosine (CLA-PS), tetraacetyl phytosphingosine (TAPS), and N-acetyl phytosphingosine (NAPS) are dissolved into DMSO to have the final concentration of 1-100 μM.
In order to study the effects of the compositions of the present invention on the cytotoxicity in the human keratinocyte cell line HaCaT cells, the cell viability is analyzed by the MTT (3-[4,5-dimethylthiazol-2-yl]-2,5-diphenyltetrazolium bromide) assay. HaCaT cells are supplied by Professor N. Fuseng of German Cancer Research in Germany. HaCaT cells are seeded in a density of 1×10^6 cells in a […] and cultured in DMEM (Dulbecco's Modified Eagle Medium) containing 10% fetal bovine serum (FBS, GIBCO), 100 units/ml penicillin, and 100 μg/ml streptomycin for 48 hours. They are treated with trypsin and 1-2×10^4 cells per well are seeded again in a 96-well plate by using a serum-free culture medium, about 3 hours after which they are cultured by treatment with phytosphingosine derivatives. After they are cultured for 24 hours, the MTT reagent is added at a concentration of 2 mg/ml, cultured for 4 hours, suspended in DMSO after removing the culture medium completely in order to measure O.D. at 540 nm. C2-ceramide is used for comparison.
The MTT assay is used for the above purpose. Primary human umbilical vein endothelial cells are cultured from the human umbilical vein. The method of cell culture and the MTT assay are the same as those in the above. C2-ceramide is used for comparison.

[2] = system: Th1 cells activation; assay: Mixed leukocyte reaction (MLR), Th1 cells activation by TNBSO3, MTT assay; format: cell-based, mice; conditions: MLR with TNBSO3-conjugated stimulator cells, FIG. 4
Protocol: Whether the composition of the present invention has a suppressive effect on the Th1 cells activation which isolate […], IL-12, etc. by reacting with TNBSO3 […] was examined.
The mononuclear cells obtained from spleen of mice as described the above 4 were used for responder cells, and TNBSO3-conjugated cells were used for stimulator cells. The stimulator cells were obtained as follows:
The mononuclear cells were adjusted to be 2×10^7 cells/ml in PBS and the same volume of 20 mM TNBSO3 was added and incubated at 37° C. for 10 min in the dark state. After incubation, the cells wrer washed three times with PBS.
Each 2×10^5 responder cells and stimulator cells were mixed with each other and cultured for 5 days on the 96-well plate. And RPMI with 10% of serum was used as a medium.
The above cells were cultured for 24 hours in the presence of 1, 10, 50 and 100 μM of NAPS, TAPS, and PS to examine the proliferation of the cells.
C2-ceramide was used as control.

[3] = system: HaCaT cells; assay: TUNEL assay, induction of apoptosis; format: cell-based, human; conditions: for cell death (TUNEL): 10 μM and 30 μM, 24 hours, FIG. 6; for time after treating at which apoptosis is induced: 30 μM, FIG. 7
Protocol: Induction of apoptosis of HaCaT cells by the compositions of the present invention is observed in the TUNEL-TdT-mediated dUTP nick end labeling-assay by using in situ cell death detection kit, POD (Enzo, 1684817, Boeringer Mannhein).
In the TC chamber (Lab-TEK chamber Slide w/cover Permanox Slide sterile 1 well, 177410), 1×10^6 HaCaT cells are seeded and cultured on the DMEM medium for longer than 18 hours and treated with phytosphingosine derivatives. The cells are fixed 24 hours after treating with drugs, and the endogenous peroxidase is blocked with a blocking solution (3% H2O2 in MeOH), and permeation of cells is increased by using a permeabilization solution (0.1% Triton X-100 in 0.1% sodium citrate). Then apoptotic cells are labeled by using the mixture of tunnel reaction and are colored by using the DAB substrate (DAKO, K3465). Colored cells are observed by using a microscope.

[4] = system: HaCaT cells human keratinocyte cell line; assay: MTT assay, combined administration with Vit D3 or calcipotriol; format: cell-based
Protocol: In order to study the synergistic effect in the cytotoxicity when the compositions of the present invention are administered in combination with Vit D3 or calcipotriol, the cell viability is analyzed by MTT assay method in HaCaT cells human keratinocyte cell line.
To HaCaT cells, 1 μM of Vit D3 or calcipotriol, or 10 μM each of NAPS and TAPS, is administered singly or in combination with each other, and they are cultured for 24 hours. And the effects of these drugs on the cytotoxicity according to the single or combined administration are observed by MTT assay. C2-ceramide is used for comparison.

[5] = system: HaCaT cells; assay: MTT assay, combined treatment with UVB irradiation; format: cell-based, human; set-up: Cell viability: unit not given here; conditions: for Cell viability: HaCaT; for cytotoxicity: 10 μM only
Protocol: In order to study the synergistic effect in the cytotoxicity by the cotreatment with administration of the compositions of the present invention and with UVB irradiation, the cell viability is analyzed by MTT assay method in HaCaT cells. On a 100-mm dish, 1×10^6 HaCaT cells are seeded and cultured in DMEM containing 10% fetal bovine serum, 100 units/ml penicillin, and 100 μg/ml streptomycin for 48 hours. They are treated with trypsin, and 1-2×10^4 cells per well are seeded on a 96-well plate again by using a serum-free medium, which is removed after about 3 hours. HaCaT cells are washed with PBS three times, and 3.5 ml of PBS per plate is added. It is then irradiated with 200 J/m^2 of UVB. After irradiation, the medium is replaced with a DMEM medium. Then it is treated with the phytosphingosine derivatives of the present invention, and cultured for 24 hours. After 2 mg/ml of the MTT reagent is added, it is cultured for 4 hours. The medium is removed completely, the cells are suspended in DMSO, and O.D. is measured at 540 nm.

With tetraacetyl phytosphingosine [TAPS] the Cell viability ([1]; 3.5 μM) was 47 ± 8.4, the Cell viability ([1]; 7 μM) was 22 ± 1.9 and the Cell viability ([1]; 15 μM) was 15 ± 0.7. The Cell viability ([1]; 30 μM) was 9 ± 0.5, the “concentration showing a suppressive effect on Th1 cells activation” value [2] was 10 µM and the “cell death (TUNEL)” value [3] was “most significant effect of cell death”. The “time after treating at which apoptosis is induced” value [3] was 4 h, the cytotoxicity ([4]; 10 μM combined application with Vit D3) was 66% and the cytotoxicity ([4]; 10 μM combined application with calcipotriol) was 64%. For the same compound, the Cell viability ([4]; 10 μM combined with Vit D3 (1 μM), 24 hours, HaCaT, in %) was 34 ± 4, the Cell viability ([4]; 10 μM combined with calcipotriol (1 μM), 24 hours, HaCaT, in %) was 36 ± 8 and the cytotoxicity ([4]; 10 μM single administration) was 24%. For the same compound, the Cell viability ([4]; 10 μM singly, 24 hours, HaCaT, in %) was 76 ± 2, the Cell viability ([5]; 1 μM + UVB 200 J/m^2, 24 hours) was 27 ± 7.1 and the Cell viability ([5]; 1 μM, no UVB, 24 hours) was 111 ± 7.0. The Cell viability ([5]; 3 μM + UVB 200 J/m^2, 24 hours) was 27 ± 3.9, the Cell viability ([5]; 3 μM, no UVB, 24 hours) was 97 ± 10.0 and the Cell viability ([5]; 5 μM + UVB 200 J/m^2, 24 hours) was 16 ± 3.2. For the same compound, the Cell viability ([5]; 5 μM, no UVB, 24 hours) was 83 ± 8.0, the Cell viability ([5]; 10 μM + UVB 200 J/m^2, 24 hours) was 2 ± 0.1 and the cytotoxicity ([5]; no UVB) was 57%. The Cell viability ([5]; 10 μM, no UVB, 24 hours) was 43 ± 4.0.
`CCCCCCCCCCCCCC[C@@H](O)[C@@H](O)[C@H](CO)NC(C)=O` [NAPS, N-acetyl phytosphingosine] was tested, and the cytotoxicity ([1]; human, 24 h, 30 μM) was 86-91%, the “concentration showing a suppressive effect on Th1 cells activation” value [2] was 50 µM and the “cell death (TUNEL)” value [3] was “most significant effect of cell death”. For the same compound, the “time after treating at which apoptosis is induced” value [3] was 4 h, the Cell viability ([4]; human, 24 h, 10 µM) was 86 ± 2 and the cytotoxicity ([4]; human, 24 h, 10 µM) was 14%. For the same compound, the cytotoxicity ([5]; no UVB) was 33%.

Reference: patent publication US20060166934A1, “Composition comprising phytosphingosine derivatives for apoptosis induction” (Tae-Yoon Kim, priority 2002, published 2006)
